Measured values taken from ChEMBL document CHEMBL5726571, “5-hydroxytryptamine receptor 7 activity modulators and their method of use” (2017).

Target: 5-hydroxytryptamine receptor 7 (Homo sapiens, UniProt P34969)
Assay: Radiolabel Binding Assay: A stock concentration of 5 nM [3H]LSD (lysergic acid diethyl amide) is prepared in 50 mM Tris-HCl, 10 mM MgCl2, 1 mM EDTA, pH 7.4 (Assay Buffer). Aliquots (50 μl) of radioligand are dispensed into the wells of a 96-well plate containing 100 μl of Assay Buffer. Duplicate 50-μl aliquots of the compound of the disclosure test and chlorpromazine positive control reference compound serial dilutions are added.Membrane fractions of cells expressing recombinant 5HT7 receptors (50 μL) are dispensed into each well. The membranes are prepared from stably tranfected cell lines expressing 5HT7 receptors cultured on 10-cm plates by harvesting PBS-rinsed monolayers, resuspending and lysing in chilled, hypotonic 50 mM Tris-HCl, pH 7.4, centrifuging at 20,000×g, decanting the supernatant and storing at −80° C.; the membrane preparations are resuspended in 3 ml of chilled Assay Buffer and homogenized by several passages through a 26 gauge needle before using in the assay.

Sequence of 5-hydroxytryptamine receptor 7 (P34969 whole entry): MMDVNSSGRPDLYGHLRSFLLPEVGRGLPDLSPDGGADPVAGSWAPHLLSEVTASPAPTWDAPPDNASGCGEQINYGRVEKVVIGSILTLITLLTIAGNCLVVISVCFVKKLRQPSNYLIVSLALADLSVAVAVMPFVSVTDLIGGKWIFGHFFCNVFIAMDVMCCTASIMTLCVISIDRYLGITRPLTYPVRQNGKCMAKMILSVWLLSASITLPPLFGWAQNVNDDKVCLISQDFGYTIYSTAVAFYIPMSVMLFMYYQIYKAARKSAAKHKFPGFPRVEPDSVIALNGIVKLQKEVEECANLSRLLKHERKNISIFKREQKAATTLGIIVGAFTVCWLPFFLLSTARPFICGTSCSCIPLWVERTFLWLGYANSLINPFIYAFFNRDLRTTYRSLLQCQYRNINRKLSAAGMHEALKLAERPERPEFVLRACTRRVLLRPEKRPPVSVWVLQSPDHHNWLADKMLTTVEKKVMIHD

Row | IC50 [nM] | Compound
1 | 749 | O=C1OC(CCN2CCN(c3cccnc3)CC2)CC12CCCCC2 (stereo not drawn)
2 | 1380 | CCC1(CC)CC(CCN2CCN(c3c(C)cccc3C)CC2)OC1=O (stereo not drawn)
3 | 134 | CCC1(CC)CC(CCN2CCN(c3ccc(C#N)cc3)CC2)OC1=O (stereo not drawn)
4 | 324 | CCC1(CC)CC(CCN2CCN(c3cccc(O)c3)CC2)OC1=O (stereo not drawn)
5 | 56 | COc1cccc(N2CCN(CCC3CC4(CCCCC4)C(=O)O3)CC2)c1 (stereo not drawn)
6 | 183 | O=C1OC(CCN2CCN(c3ccc(C(F)(F)F)cc3)CC2)CC12CCCCC2 (stereo not drawn)
7 | 118 | CCC1(CC)CC(CCN2CCN(c3ccccc3OC)CC2)OC1=O (stereo not drawn)
8 | 13 | CCC1(CC)CC(CCN2CCc3ccccc3C2)OC1=O (stereo not drawn)
9 | 3160 | CCC1(CC)CC(CCN2CCN(c3ccc(C(O)(c4ccccc4)c4ccccc4)cc3)CC2)OC1=O (stereo not drawn)
10 | 165 | CCC1(CC)CC(CCN2CCN(c3cccc(OC)c3)CC2)OC1=O (stereo not drawn)
11 | 363 | CCC1(CC)CC(CCN2CCN(c3ccc(C)cc3C)CC2)OC1=O (stereo not drawn)
12 | 24 | CC(C)c1ccccc1N1CCN(CCC2CC3(CCCC3)C(=O)O2)CC1 (stereo not drawn)
13 | 72 | COc1ccccc1N1CCN(CCC2CC3(CCCCC3)C(=O)O2)CC1 (stereo not drawn)
14 | 54 | CCC1(CC)CC(CCN2CCN(c3ccc([N+](=O)[O-])cc3)CC2)OC1=O (stereo not drawn)
15 | 471 | CCC1(CC)CC(CCN2CCN(c3ccc(N)cc3)CC2)OC1=O (stereo not drawn)
16 | 89 | CCC1(CC)CC(CCN2CCN(c3ccc(O)cc3)CC2)OC1=O (stereo not drawn)
17 | 254 | O=C1OC(CCN2CCN(c3ccc(C(F)(F)F)cn3)CC2)CC12CCCCC2 (stereo not drawn)
18 | 1920 | CC(C)(C)c1ccccc1N1CCN(CCC2CC3(CCCC3)C(=O)O2)CC1 (stereo not drawn)
19 | 3760 | CCC1(CC)CC(CCN2CCN(C3CCCCC3)CC2)OC1=O (stereo not drawn)
20 | 104 | CCC1(CC)CC(CCN2CCN(c3ccccc3C)CC2)OC1=O (stereo not drawn)
21 | 146 | Cc1ccc(N2CCN(CCCC3CC(c4ccccc4)(c4ccccc4)C(=O)O3)CC2)cc1 (stereo not drawn)
22 | 145 | Cc1ccc(N2CCN(CCC3CC(c4ccccc4)(c4ccccc4)C(=O)O3)CC2)cc1 (stereo not drawn)
23 | 44 | O=C1OC(CCN2CCN(c3ccccn3)CC2)CC12CCCCC2 (stereo not drawn)
24 | 33 | O=C1OC(CCN2CCN(c3ccccc3)CC2)CC12CCCCC2 (stereo not drawn)
25 | 83 | CCC1(CC)CC(CCN2CCN(C(c3ccccc3)c3ccccc3)CC2)OC1=O (stereo not drawn)
26 | 156 | CCC1(CC)CC(CCN2CCN(c3ccccc3O)CC2)OC1=O (stereo not drawn)
27 | 21 | CCC1(CC)CC(CCN2CCN(c3ccccc3)CC2)OC1=O (stereo not drawn)
28 | 1520 | N#Cc1ccc(N2CCN(CCC3CC4(CCCCC4)C(=O)O3)CC2)nc1 (stereo not drawn)
